Laboratory results published in patent US20230144824A1, “1H-PYRAZOLO[4,3-d]PYRIMIDINE COMPOUNDS AS TOLL-LIKE RECEPTOR 7 (TLR7) AGONISTS” (BRISTOL-MYERS SQUIBB COMPANY, priority 2020, published 2023).

Tests used:
human TLR7 = target: T1, human TLR7 (Homo sapiens, UniProt Q9NYK1); assay: Human TLR7 agonist activity assay (HEK-Blue TLR7 SEAP reporter); assay type: cell-based; settings: HEK-Blue TLR7 cells, 18 h treatment, average where assay performed multiple times, read-out: hTLR7 Agonism EC50
T1 construct: host or cells: HEK-Blue TLR7 cells (engineered human embryonic kidney cells)
T1 sequence (Q9NYK1 27-1049): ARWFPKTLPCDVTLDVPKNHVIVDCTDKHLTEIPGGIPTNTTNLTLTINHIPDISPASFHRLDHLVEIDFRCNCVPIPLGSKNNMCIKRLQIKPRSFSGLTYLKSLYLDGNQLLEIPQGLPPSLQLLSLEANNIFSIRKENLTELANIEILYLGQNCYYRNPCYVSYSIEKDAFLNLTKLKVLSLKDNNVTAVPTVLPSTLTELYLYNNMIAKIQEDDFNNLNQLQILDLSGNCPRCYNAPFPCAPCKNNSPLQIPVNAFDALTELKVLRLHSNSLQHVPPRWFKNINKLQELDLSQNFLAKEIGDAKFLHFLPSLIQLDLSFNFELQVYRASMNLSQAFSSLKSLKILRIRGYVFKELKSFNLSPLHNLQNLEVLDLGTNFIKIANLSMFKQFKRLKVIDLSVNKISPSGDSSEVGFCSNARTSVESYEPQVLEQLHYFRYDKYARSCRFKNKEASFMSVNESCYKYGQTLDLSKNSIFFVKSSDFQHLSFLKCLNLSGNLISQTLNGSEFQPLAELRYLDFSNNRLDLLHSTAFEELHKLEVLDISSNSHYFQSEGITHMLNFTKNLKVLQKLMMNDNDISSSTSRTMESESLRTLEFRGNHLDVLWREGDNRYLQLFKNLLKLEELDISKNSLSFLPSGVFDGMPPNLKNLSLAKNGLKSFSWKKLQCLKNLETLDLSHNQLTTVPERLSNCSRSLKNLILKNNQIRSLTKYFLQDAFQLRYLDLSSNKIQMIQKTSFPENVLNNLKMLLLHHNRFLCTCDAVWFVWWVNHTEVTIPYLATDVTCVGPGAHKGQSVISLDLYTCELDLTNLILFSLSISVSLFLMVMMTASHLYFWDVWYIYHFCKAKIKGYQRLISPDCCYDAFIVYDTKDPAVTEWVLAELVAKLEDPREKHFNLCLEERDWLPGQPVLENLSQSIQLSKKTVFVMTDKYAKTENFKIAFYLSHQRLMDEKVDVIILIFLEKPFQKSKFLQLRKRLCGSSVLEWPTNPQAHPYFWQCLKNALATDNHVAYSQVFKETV
In short: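 HEK-Blue TLR7 cells (15,000/well) treated with compound for 18 h at 37 °C, 5% CO2. Secreted SEAP measured with Quanti-Blue, 30 min, OD 620 nm. EC50 taken as concentration giving half-maximal response between baseline and maximum.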

CD69 = assay: Induction of CD69 in human whole blood; assay type: cell-based; settings: Homo sapiens, 17 h, 100% set to 1 uM of resiquimod, average where assay performed multiple times, read-out: hWB CD69 EC50
Protocol: The induction of Type I interferon (IFN) MX-1 genes and the B-cell activation marker CD69 are downstream events that occur upon activation of the TLR7 pathway. The following is a human whole blood assay that measures their induction in response to a TLR7 agonist.
Heparinized human whole blood was harvested from human subjects and treated with test TLR7 agonist compounds at 1 mM. The blood was diluted with RPMI 1640 media and Echo was used to predot 10 nL per well giving a final concentration of 1 uM (10 nL in 10 uL of blood). After mixing on a shaker for 30 sec, the plates were covered and placed in a 37° C. chamber for o/n=17 hrs. Fixing/lysis buffer was prepared (5×->1× in H2O, warm at 37° C.; Cat #BD 558049) and kept the perm buffer (on ice) for later use.
For surface markers staining (CD69): prepared surface Abs: 0.045 ul hCD14-FITC (ThermoFisher Cat #MHCD1401)+0.6 ul hCD19-ef450 (ThermoFisher Cat #48-0198-42)+1.5 ul hCD69-PE (cat #BD555531)+0.855 ul FACS buffer. Added 3 ul/well, spin1000 rpm for 1 min and mixed on shaker for 30 sec, put on ice for 30 mins. Stop stimulation after 30 minutes with 70 uL of prewarmed 1× fix/lysis buffer and use Feliex mate to resuspend (15 times, change tips for each plate) and incubate at 37 C for 10 minutes.
Centrifuge at 2000 rpm for 5 minutes aspirate with HCS plate washer, mix on shaker for 30 sec and then wash with 70 uL in dPBS and pelleted 2×s (2000 rpm for 5 min) and 50 ul wash in FACS buffer pelleted 1×s (2000 rpm for 5 min). Mix on shaker for 30 sec. For Intracellular markers staining (MX-1): Add 50 ul of BD Perm buffer III and mix on shaker for 30 sec. Incubate on ice for 30 minutes (in the dark). Wash with 50 uL of FACS buffer 2×(spin @2300 rpm×5 min after perm) followed by mixing on shaker for 30 sec. Resuspended in 20 ul of FACS buffer containing MX1 antibody ( )(4812)-Alexa 647: Novus Biologicals #NBP2-43704AF647) 20 ul FACS bf+0.8 ul hIgG+0.04 ul MX-1. Spin 1000 rpm for 1 min, mix on shaker for 30 se and the samples were incubated at RT in the dark for 45 minutes followed by washing 2×FACS buffer (spin @2300 rpm×5 min after perm). Resuspend 20 ul (35 uL total per well) of FACS buffer and cover with foil and place in 4° C. to read the following day. Plates were read on iQuePlus. The results were loaded into toolset and IC50 curves are generated in curve master. The y-axis 100% is set to 1 uM of resiquimod.

Row | EC50 (human TLR7) [nM] | EC50 (CD69) [nM] | SMILES
1 | 26.7 | 5.6 | CCC[C@@H](CCO)Nc1nc(N)nc2cnn(Cc3ncc(C4CCN(C5CN(C)C5)CC4)cc3OC)c12 [Compound 138, (3S)-3-{[5-amino-1-({3-methoxy-5-[1-(1-methylazetidin-3-yl)piperidin-4-yl]pyridin-2-yl}methyl)-1H-pyrazolo[4,3-d]pyrimidin-7-yl]amino}hexan-1-ol]
2 | 48.4 | 3.5 | CCCCNc1nc(N)nc2cnn(Cc3ncc(C4CCN(C(=O)CN(C)C)CC4)cc3OC)c12 [Compound 128, 1-[4-(6-{[5-amino-7-(butylamino)-1H-pyrazolo[4,3-d]pyrimidin-1-yl]methyl}-5-methoxypyridin-3-yl)piperidin-1-yl]-2-(dimethylamino)ethan-1-one]
3 | 47.2 | 9.4 | CCCCNc1nc(N)nc2cnn(Cc3ncc(C4CCN(C(C)C)CC4)cc3OC)c12 [Compound 113, N7-butyl-1-({3-methoxy-5-[1-(propan-2-yl)piperidin-4-yl]pyridin-2-yl}methyl)-1H-pyrazolo[4,3-d]pyrimidine-5,7-diamine]
4 | 595 | 972 | CCCCNc1nc(N)nc2c(Cl)nn(Cc3ncc(C4CCN(C5CCCC5)CC4)cc3OC)c12 [Compound 131, N7-butyl-3-chloro-1-{[5-(1-cyclopentylpiperidin-4-yl)-3-methoxypyridin-2-yl]methyl}-1H-pyrazolo[4,3-d]pyrimidine-5,7-diamine]
5 | 204 | 562 | CCCCNc1nc(N)nc2cnn(Cc3ncc(C4CCN(S(C)(=O)=O)CC4)cc3OC)c12 [Compound 103, N7-butyl-1-{[5-(1-methanesulfonylpiperidin-4-yl)-3-methoxypyridin-2-yl]methyl}-1H-pyrazolo[4,3-d]pyrimidine-5,7-diamine]
6 | 34 | 7.1 | COc1cc(C2CCN(C3CC4(COC4)C3)CC2)cnc1Cn1ncc2nc(N)nc(NCC3CC4(CC4)C3)c21 (stereo not shown) [Compound 154, 1-{[3-methoxy-5-(1-{2-oxaspiro[3.3]heptan-6-yl}piperidin-4-yl)pyridin-2-yl]methyl}-N7-({spiro[2.3]hexan-5-yl}methyl)-1H-pyrazolo[4,3-d]pyrimidine-5,7-diamine]
7 | 12.8 | 2.7 | CCC[C@@H](CCO)Nc1nc(N)nc2cnn(Cc3ncc(C4CCN(C5CCOCC5)CC4)cc3OC)c12 [Compound 127, (3S)-3-{[5-amino-1-({3-methoxy-5-[1-(oxan-4-yl)piperidin-4-yl]pyridin-2-yl}methyl)-1H-pyrazolo[4,3-d]pyrimidin-7-yl]amino}hexan-1-ol]
8 | 50.8 | 37 | COc1cc(C2CCN(C3CCOCC3)CC2)cnc1Cn1ncc2nc(N)nc(NCC3CC4(CC4)C3)c21 [Compound 157, 1-({3-methoxy-5-[1-(oxan-4-yl)piperidin-4-yl]pyridin-2-yl}methyl)-N7-({spiro[2.3]hexan-5-yl}methyl)-1H-pyrazolo[4,3-d]pyrimidine-5,7-diamine]

The next lines start with the molecule.

Row | SMILES | EC50 (human TLR7) [nM] | EC50 (CD69) [nM]
9 | CCC[C@@H](CCO)Nc1nc(N)nc2cnn(Cc3ncc(N4CCNCC4)cc3OC)c12 [Compound 171, (3S)-3-[(5-amino-1-{[3-methoxy-5-(piperazin-1-yl)pyridin-2-yl]methyl}-1H-pyrazolo[4,3-d]pyrimidin-7-yl)amino]hexan-1-ol] | 309 | 55.5
10 | CCC[C@@H](CCO)Nc1nc(N)nc2cnn(Cc3nc(C4CCN(C(C)C)CC4)ccc3OC)c12 [Compound 190, (3S)-3-{[5-amino-1-({3-methoxy-6-[1-(propan-2-yl)piperidin-4-yl]pyridin-2-yl}methyl)-1H-pyrazolo[4,3-d]pyrimidin-7-yl]amino}hexan-1-ol] | 175 | 26.7
11 | CCCCNc1nc(N)nc2c(C3CC3)nn(Cc3ncc(C4CCN(C)CC4)cc3OC)c12 [Compound 107, N7-butyl-3-cyclopropyl-1-{[3-methoxy-5-(1-methylpiperidin-4-yl)pyridin-2-yl]methyl}-1H-pyrazolo[4,3-d]pyrimidine-5,7-diamine] | 383 | 444
12 | CCCCNc1nc(N)nc2cnn(Cc3cc(F)c(N4CCNCC4)cc3OC)c12 [Compound 192, N7-butyl-1-{[5-fluoro-2-methoxy-4-(piperazin-1-yl)phenyl]methyl}-1H-pyrazolo[4,3-d]pyrimidine-5,7-diamine] | 193 | 58.2
13 | CCCCNc1nc(N)nc2cnn(Cc3cc(F)c(N4CCN(S(C)(=O)=O)CC4)cc3OC)c12 [Compound 193, N7-butyl-1-{[5-fluoro-4-(4-methanesulfonylpiperazin-1-yl)-2-methoxyphenyl]methyl}-1H-pyrazolo[4,3-d]pyrimidine-5,7-diamine] | 84.9 | 529
14 | CCCCNc1nc(N)nc2cnn(Cc3ncc(C4CCN(C(=O)CCOC)CC4)cc3OC)c12 [Compound 104, 1-[4-(6-{[5-amino-7-(butylamino)-1H-pyrazolo[4,3-d]pyrimidin-1-yl]methyl}-5-methoxypyridin-3-yl)piperidin-1-yl]-3-methoxypropan-1-one] | 445 | 213
15 | CCC[C@@H](CCO)Nc1nc(N)nc2cnn(Cc3ncc(C4CCN(C(C)C)CC4)cc3OC)c12 [Compound 126, (3S)-3-{[5-amino-1-({3-methoxy-5-[1-(propan-2-yl)piperidin-4-yl]pyridin-2-yl}methyl)-1H-pyrazolo[4,3-d]pyrimidin-7-yl]amino}hexan-1-ol] | 15.5 | 2
16 | CCC[C@@H](CCO)Nc1nc(N)nc2cnn(Cc3nc(C4CCNCC4)ccc3OC)c12 [Compound 186, (3S)-3-[(5-amino-1-{[3-methoxy-6-(piperidin-4-yl)pyridin-2-yl]methyl}-1H-pyrazolo[4,3-d]pyrimidin-7-yl)amino]hexan-1-ol] | 1650 | 242
17 | COc1cc(C2CCN(C(=O)CCN(C)C)CC2)cnc1Cn1ncc2nc(N)nc(NCc3cc(C)on3)c21 [Compound 140, 1-(4-{6-[(5-amino-7-{[(5-methyl-1,2-oxazol-3-yl)methyl]amino}-1H-pyrazolo[4,3-d]pyrimidin-1-yl)methyl]-5-methoxypyridin-3-yl}piperidin-1-yl)-3-(dimethylamino)propan-1-one] | 530 | 128
